Test results taken from paper PMC7217150, “Synthesis, Modification, and Biological Evaluation of a Library of Novel Water‐Soluble Thiopyridone‐Based Organometallic Complexes and Their Unexpected (Biological) Behavior” (Chemistry (Weinheim an Der Bergstrasse, Germany), 2020).
Where two headings read alike, the source gives them in different places.

Key:
A549 [1] = experiment: MTT cytotoxicity assay, monolayer culture; type: cell-based, human; details: exposure time 96 h, means ± SDs
CH1/PA‐1 [2] = experiment: MTT cytotoxicity assay, monolayer culture; type: cell-based, human; details: CH1/PA‐1, MTT assay, exposure time 96 h, means ± SDs
SW480 [3] = experiment: MTT cytotoxicity assay, monolayer culture; type: cell-based, human
[4] = pH 7.2
Protocol: Stock solutions containing the desired complex in DMSO (5 mM) were diluted with phosphate buffer (pH 7.2) to a final concentration of […] compound in 1 % DMSO/20 mM buffer and directly analyzed by four different isocratic UHPLC runs (Δ=5 %). The lipophilicity parameters logkw and lipophilicity indices φ0 were calculated according to literature.7, 37

A549 [5] = details: A549 multicellular spheroids, 96 h drug exposure
Protocol: (§1) A549, CH1/PA‐1 and SW480 cells were grown in MEM supplemented with 10 % fetal calf serum (FCS; from Biowest), 1 mM sodium pyruvate, 4 mM L‐glutamine and 1 % v/v nonessential amino acids (from 100×solution) and L‐glutamine. HCT‐116 cells were maintained in McCoy's 5a medium supplemented with 10 % FCS and L‐glutamine. Adherent monolayer cultures were grown in 75 cm^2 flasks. For spheroid culture, A549, CH1/PA‐1 and HCT‐116 cells were harvested from culture flasks by trypsinization, resuspended in their respective supplemented medium and seeded in ultra‐low attachment round‐bottom 96‐well plates (Corning Costar) at a density of 500 viable cells per well. Plates were incubated for 96 h to allow spheroid formation prior to use for the tests. All cultures were incubated in a humidified incubator at 37 °C with 5 % CO2.
(§2) Cytotoxicity in multicellular spheroids was determined by the fluorimetric resazurin assay. […] After incubation for 96 h, 20 μL of a 440 μM resazurin sodium salt solution in PBS were added to each well, and the plates were incubated for further 16 h. Fluorescence was measured with a Synergy HT reader (BioTek) with an excitation wavelength of 530 nm and emission wavelength of 590 nm. For both assays, at least three independent experiments (or two in case of poor activity) were performed, each with triplicates per concentration level, and the 50 % inhibitory concentrations (IC50) relative to untreated controls were interpolated from concentration‐effect curves.

CH1/PA‐1 [6] = details: CH1/PA‐1 multicellular spheroids, 96 h drug exposure
Protocol: as §1, §2

HCT‐116 = HCT‐116 multicellular spheroids, 96 h drug exposure
Protocol: as §1, §2

CH1/PA‐1 [7] = experiment: Cell cycle distribution, flow cytometry with propidium iodide; type: cell-based, human; details: for Cell cycle distribution G1, % / Cell cycle distribution G2/M, % / Cell cycle distribution S, %: 24 h, mean ± SD; for Relative change in cell cycle distribution G1, % / Relative change in cell cycle distribution G2/M, % / Relative change in cell cycle distribution S, %: difference to untreated control
Procedure, shortened: (§3)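 CH1/PA-1 and SW480 cells were allowed to attach for 24 h, then exposed continuously to compounds for 24 h at 37 °C. Nuclei were stained overnight at 4 °C with propidium iodide (50 μg mL^−1) in Triton/citrate buffer. 5×10^3 cells were analysed by flow cytometry, with G1/S/G2/M fractions fitted by the Watson Pragmatic model.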

SW480 [8] = experiment: as above; type: cell-based, human; details: for Cell cycle distribution G1, % / Cell cycle distribution G2/M, % / Cell cycle distribution S, %: 24 h, mean ± SD; for Relative change in cell cycle distribution G1, % / Relative change in cell cycle distribution G2/M, % / Relative change in cell cycle distribution S, %: difference to untreated control; for decrease in G1 phase: SW480 cells
Procedure, shortened: as §3

SW480 cells = details: for Cellular accumulation: ICP‐MS, 2 h exposure, 50 μM
[9] = tested on: human cancer cell lines CH1/PA‐1, SW480, A549
Protocol: Cytotoxicity of the compounds in monolayer cultures was determined by the colorimetric MTT assay (MTT=3‐(4,5‐dimethyl‐2‐thiazolyl)‐2,5‐diphenyl‐2H‐tetrazolium bromide). 1×10^3 CH1/PA‐1, 2×10^3 SW480 and 3×10^3 A549 cells were seeded in 100 μL supplemented MEM per well into 96‐well flat‐bottom microculture plates. […] After 96 h, the drug‐containing medium was replaced with 100 μL of RPMI 1640/MTT mixture [6 parts of RPMI 1640 medium (supplemented with 10 % heat‐inactivated fetal bovine serum and 4 mM L‐glutamine), 1 part of MTT solution in phosphate‐buffered saline (5 mg mL^−1)]. After incubation for 4 h, the mixture was replaced with 150 μL DMSO per well to dissolve the formazan product formed by viable cells. Optical densities at 550 nm (and at a reference wavelength of 690 nm) were measured with a microplate reader (ELx808, Bio‐Tek).

[10] = SW480, MTT assay, exposure time 96 h, means ± SDs

SMILES: CC1=C2[O][Rh+]([Cl])[S]=C2C=CN1C.Cc1c(C)c(C)[c-](C)c1C [Compound 5 a, Chlorido[1,2‐dimethyl‐3‐oxo‐κO‐pyridine‐4(1H)‐thionato‐κS](η^5‐1,2,3,4,5‐pentamethylcyclopentadienyl)rhodium(III)]
- IC50 (A549 [1]): 117 ± 19 µM
- IC50 (CH1/PA‐1 [2]): 11 ± 2 µM
- IC50 (SW480 [3]; [10]): 5.5 ± 1.1 µM
- IC50 (SW480 [3]; SW480, as listed in Table 3): 5.54 ± 1.07 µM
- φ0 (chromatographic lipophilicity index) [4]: 5.91
- IC50 (A549 [5]): 367 ± 24 µM
- IC50 (CH1/PA‐1 [6]): 144 ± 7 µM
- IC50 (HCT‐116): 140 ± 20 µM
- Cell cycle distribution G1, % (CH1/PA‐1 [7]; CH1/PA-1, 10 µM): 28 ± 1%
- Cell cycle distribution G2/M, % (CH1/PA‐1 [7]; CH1/PA-1, 10 µM): 28 ± 5%
- Cell cycle distribution S, % (CH1/PA‐1 [7]; CH1/PA-1, 10 µM): 44 ± 5%
- Relative change in cell cycle distribution G1, % (CH1/PA‐1 [7]; CH1/PA-1, 10 µM): -12%
- Relative change in cell cycle distribution G2/M, % (CH1/PA‐1 [7]; CH1/PA-1, 10 µM): 4%
- Relative change in cell cycle distribution S, % (CH1/PA‐1 [7]; CH1/PA-1, 10 µM): 8%
- Cell cycle distribution G1, % (CH1/PA‐1 [7]; CH1/PA-1, 20 µM): 27 ± 5%
- Cell cycle distribution G2/M, % (CH1/PA‐1 [7]; CH1/PA-1, 20 µM): 32 ± 4%
- Cell cycle distribution S, % (CH1/PA‐1 [7]; CH1/PA-1, 20 µM): 41 ± 5%
- Relative change in cell cycle distribution G1, % (CH1/PA‐1 [7]; CH1/PA-1, 20 µM): -13%
- Relative change in cell cycle distribution G2/M, % (CH1/PA‐1 [7]; CH1/PA-1, 20 µM): 8%
- Relative change in cell cycle distribution S, % (CH1/PA‐1 [7]; CH1/PA-1, 20 µM): 5%
- Cell cycle distribution G1, % (CH1/PA‐1 [7]; CH1/PA-1, 40 µM): 26 ± 6%
- Cell cycle distribution G2/M, % (CH1/PA‐1 [7]; CH1/PA-1, 40 µM): 31 ± 2%
- Cell cycle distribution S, % (CH1/PA‐1 [7]; CH1/PA-1, 40 µM): 42 ± 1%
- Relative change in cell cycle distribution G1, % (CH1/PA‐1 [7]; CH1/PA-1, 40 µM): -14%
- Relative change in cell cycle distribution G2/M, % (CH1/PA‐1 [7]; CH1/PA-1, 40 µM): 7%
- Relative change in cell cycle distribution S, % (CH1/PA‐1 [7]; CH1/PA-1, 40 µM): 6%
- shift of cell cycle distribution towards S and G2/M phases in total (CH1/PA‐1 [7]; CH1/PA‐1 cells, 40 μM): up to 14%
- Cell cycle distribution G1, % (SW480 [8]; SW480, 5 µM): 44 ± 1%
- Cell cycle distribution G2/M, % (SW480 [8]; SW480, 5 µM): 26 ± 2%
- Cell cycle distribution S, % (SW480 [8]; SW480, 5 µM): 30 ± 4%
- Relative change in cell cycle distribution G1, % (SW480 [8]; SW480, 5 µM): -4%
- Relative change in cell cycle distribution G2/M, % (SW480 [8]; SW480, 5 µM): 7%
- Relative change in cell cycle distribution S, % (SW480 [8]; SW480, 5 µM): -3%
- Cell cycle distribution G1, % (SW480 [8]; SW480, 10 µM): 38 ± 4%
- Cell cycle distribution G2/M, % (SW480 [8]; SW480, 10 µM): 20 ± 4%
- Cell cycle distribution S, % (SW480 [8]; SW480, 10 µM): 42 ± 1%
- Relative change in cell cycle distribution G1, % (SW480 [8]; SW480, 10 µM): -10%
- Relative change in cell cycle distribution G2/M, % (SW480 [8]; SW480, 10 µM): 1%
- Relative change in cell cycle distribution S, % (SW480 [8]; SW480, 10 µM): 9%
- Cell cycle distribution G1, % (SW480 [8]; SW480, 20 µM): 46 ± 3%
- Cell cycle distribution G2/M, % (SW480 [8]; SW480, 20 µM): 12 ± 1%
- Cell cycle distribution S, % (SW480 [8]; SW480, 20 µM): 42 ± 2%
- Relative change in cell cycle distribution G1, % (SW480 [8]; SW480, 20 µM): -2%
- Relative change in cell cycle distribution G2/M, % (SW480 [8]; SW480, 20 µM): -7%
- Relative change in cell cycle distribution S, % (SW480 [8]; SW480, 20 µM): 9%
- decrease in G1 phase (SW480 [8]; 10 μM): 10%
- Cellular accumulation (SW480 cells): 118±35 fg/cell

SMILES: CC1=C2[O][Ir+]([Cl])[S]=C2C=CN1Cc1ccccc1.Cc1c(C)c(C)[c-](C)c1C [Compound 6 c, Chlorido[1‐benzyl‐2‐methyl‐3‐oxo‐κO‐pyridine‐4(1H)‐thionato‐κS](η^5‐1,2,3,4,5‐pentamethylcyclopentadienyl)iridium(III)]
- IC50 (A549 [1]): 1.1 ± 0.2 µM
- IC50 (CH1/PA‐1 [2]): 0.57 ± 0.05 µM
- IC50 (SW480 [3]; [10]): 0.54 ± 0.07 µM
- IC50 (SW480 [3]; SW480, as listed in Table 3): 0.54 ± 0.07 µM
- φ0 (chromatographic lipophilicity index) [4]: 6.22
- IC50 (A549 [5]): 136 ± 5 µM
- IC50 (CH1/PA‐1 [6]): 114 ± 3 µM
- IC50 (HCT‐116): 78 ± 2 µM
- Cell cycle distribution G1, % (CH1/PA‐1 [7]; CH1/PA-1, 0.75 µM): 30 ± 4%
- Cell cycle distribution G2/M, % (CH1/PA‐1 [7]; CH1/PA-1, 0.75 µM): 32 ± 4%
- Cell cycle distribution S, % (CH1/PA‐1 [7]; CH1/PA-1, 0.75 µM): 38 ± 3%
- Relative change in cell cycle distribution G1, % (CH1/PA‐1 [7]; CH1/PA-1, 0.75 µM): -10%
- Relative change in cell cycle distribution G2/M, % (CH1/PA‐1 [7]; CH1/PA-1, 0.75 µM): 8%
- Relative change in cell cycle distribution S, % (CH1/PA‐1 [7]; CH1/PA-1, 0.75 µM): 2%
- Cell cycle distribution G1, % (CH1/PA‐1 [7]; CH1/PA-1, 1.25 µM): 30 ± 8%
- Cell cycle distribution G2/M, % (CH1/PA‐1 [7]; CH1/PA-1, 1.25 µM): 33 ± 4%
- Cell cycle distribution S, % (CH1/PA‐1 [7]; CH1/PA-1, 1.25 µM): 37 ± 6%
- Relative change in cell cycle distribution G1, % (CH1/PA‐1 [7]; CH1/PA-1, 1.25 µM): -10%
- Relative change in cell cycle distribution G2/M, % (CH1/PA‐1 [7]; CH1/PA-1, 1.25 µM): 9%
- Relative change in cell cycle distribution S, % (CH1/PA‐1 [7]; CH1/PA-1, 1.25 µM): 1%
- Cell cycle distribution G1, % (CH1/PA‐1 [7]; CH1/PA-1, 2.5 µM): 27 ± 4%
- Cell cycle distribution G2/M, % (CH1/PA‐1 [7]; CH1/PA-1, 2.5 µM): 34 ± 3%
- Cell cycle distribution S, % (CH1/PA‐1 [7]; CH1/PA-1, 2.5 µM): 39 ± 4%
- Relative change in cell cycle distribution G1, % (CH1/PA‐1 [7]; CH1/PA-1, 2.5 µM): -13%
- Relative change in cell cycle distribution G2/M, % (CH1/PA‐1 [7]; CH1/PA-1, 2.5 µM): 10%
- Relative change in cell cycle distribution S, % (CH1/PA‐1 [7]; CH1/PA-1, 2.5 µM): 3%
- decrease in G1 phase (CH1/PA‐1 [7]; CH1/PA‐1 cells, 2.5 μM): 13%
- Cell cycle distribution G1, % (SW480 [8]; SW480, 0.75 µM): 40 ± 5%
- Cell cycle distribution G2/M, % (SW480 [8]; SW480, 0.75 µM): 24 ± 5%
- Cell cycle distribution S, % (SW480 [8]; SW480, 0.75 µM): 36 ± 2%
- Relative change in cell cycle distribution G1, % (SW480 [8]; SW480, 0.75 µM): -8%
- Relative change in cell cycle distribution G2/M, % (SW480 [8]; SW480, 0.75 µM): 5%
- Relative change in cell cycle distribution S, % (SW480 [8]; SW480, 0.75 µM): 3%
- Cell cycle distribution G1, % (SW480 [8]; SW480, 1.25 µM): 39 ± 13%
- Cell cycle distribution G2/M, % (SW480 [8]; SW480, 1.25 µM): 22 ± 3%
- Cell cycle distribution S, % (SW480 [8]; SW480, 1.25 µM): 38 ± 8%
- Relative change in cell cycle distribution G1, % (SW480 [8]; SW480, 1.25 µM): -9%
- Relative change in cell cycle distribution G2/M, % (SW480 [8]; SW480, 1.25 µM): 3%
- Relative change in cell cycle distribution S, % (SW480 [8]; SW480, 1.25 µM): 5%
- Cell cycle distribution G1, % (SW480 [8]; SW480, 2.5 µM): 43 ± 2%
- Cell cycle distribution G2/M, % (SW480 [8]; SW480, 2.5 µM): 19 ± 3%
- Cell cycle distribution S, % (SW480 [8]; SW480, 2.5 µM): 38 ± 5%
- Relative change in cell cycle distribution G1, % (SW480 [8]; SW480, 2.5 µM): -5%
- Relative change in cell cycle distribution G2/M, % (SW480 [8]; SW480, 2.5 µM): 0%
- Relative change in cell cycle distribution S, % (SW480 [8]; SW480, 2.5 µM): 5%
- decrease in G1 phase (SW480 [8]; at applicable concentrations): < 9%
- cellular concentration relative to 3 c (SW480 cells): 11 times
- cellular concentration relative to 5 c (SW480 cells): 2 times
- Cellular accumulation (SW480 cells): 1680±333 fg/cell
- cytotoxicity relative to 3 c and 4 c [9]: up to 20 times
- IC50 values, in words ([9]; tested cancer cell lines): high nanomolar range
